{
  "source": "PubChem BioAssay AID588605",
  "about": "(Sanford-Burnham Center for Chemical Genomics, 2011)",
  "note": "pEC50: −log10 of the molar value. Active and inactive are the calls of the source. How the calls were made is not given here.",
  "data": [
    {"molecular_target": "Alkaline phosphatase, tissue-nonspecific isozyme (Homo sapiens) (UniProt P05186)", "sequence (P05186 whole entry, looked up)": "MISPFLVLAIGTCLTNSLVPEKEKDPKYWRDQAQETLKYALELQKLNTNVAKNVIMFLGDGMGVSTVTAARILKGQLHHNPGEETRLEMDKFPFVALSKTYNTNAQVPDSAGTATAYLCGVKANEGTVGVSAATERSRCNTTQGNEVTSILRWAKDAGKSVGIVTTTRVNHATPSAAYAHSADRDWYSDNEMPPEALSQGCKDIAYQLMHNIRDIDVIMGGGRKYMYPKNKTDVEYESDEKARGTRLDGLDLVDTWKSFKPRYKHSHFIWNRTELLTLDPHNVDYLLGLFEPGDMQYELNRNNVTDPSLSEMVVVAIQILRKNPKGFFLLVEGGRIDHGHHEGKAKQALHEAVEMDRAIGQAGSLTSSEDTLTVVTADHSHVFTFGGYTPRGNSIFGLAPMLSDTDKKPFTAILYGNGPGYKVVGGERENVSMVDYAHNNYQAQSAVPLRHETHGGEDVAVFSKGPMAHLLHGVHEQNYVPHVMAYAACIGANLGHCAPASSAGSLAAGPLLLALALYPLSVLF", "test": "TNAP enzyme activity modulation, counter to mouse IAP activators, SAR follow-up, selectivity assay for mouse IAP activator project, biochemical, set 2 (AID 588605)", "details": "SAR counter-screen for mouse IAP activators", "values": [
      {"smiles": "CN(C)S(=O)(=O)c1ccc(NC(=S)NCc2ccc(Cl)cc2)cc1", "EC50": "> 100 µM (inactive)"},
      {"smiles": "CN(C)S(=O)(=O)c1cccc(NC(=S)NCCCN2CCCC2=O)c1", "EC50": "> 100 µM (inactive)"},
      {"smiles": "CCOc1cc(CCNC(=S)Nc2ccc(S(=O)(=O)N(C)C)cc2)ccc1OC", "EC50": "> 100 µM (inactive)"},
      {"smiles": "Cc1ccc(CNC(=S)Nc2cccc(S(=O)(=O)N(C)C)c2)cc1", "EC50": "> 100 µM (inactive)"},
      {"smiles": "CN(C)S(=O)(=O)c1ccc(NC(=S)NCCc2cccc(Br)c2)cc1", "pEC50": 4.18},
      {"smiles": "CC1CCN(S(=O)(=O)c2ccc(NC(=S)NCCC(c3ccccc3)c3ccccc3)cc2)CC1", "pEC50": 4.72},
      {"smiles": "O=S(=O)(c1ccc(NC(=S)NCC(c2ccccc2)c2ccccc2)cc1)N1CCCCC1", "pEC50": 4.59},
      {"smiles": "CN(C)S(=O)(=O)c1cccc(NC(=S)NCCc2ccc(F)cc2)c1", "EC50": "> 100 µM (inactive)"},
      {"smiles": "Cc1ccc(S(=O)(=O)N(C)C)cc1NC(=S)NC(=O)C12CC3CC(CC(C3)C1)C2", "EC50": "> 100 µM (inactive)"},
      {"smiles": "CCN(CC)c1ccc(C(=O)NC(=S)Nc2cc(S(=O)(=O)N3CCOCC3)ccc2-n2cncn2)cc1", "EC50": "> 100 µM (inactive)"},
      {"smiles": "CN(C)S(=O)(=O)c1cccc(NC(=S)NCCC(=O)N2CCCC2)c1", "EC50": "> 100 µM (inactive)"},
      {"smiles": "CC(CCc1ccccc1)NC(=S)Nc1cccc(S(=O)(=O)N(C)C)c1", "note": "(centres undefined)", "pEC50": 4.20},
      {"smiles": "CN(C)S(=O)(=O)c1cccc(NC(=S)NC(C)(C)CC(C)(C)C)c1", "pEC50": 4.04},
      {"smiles": "COc1ccc(CNC(=S)Nc2ccc(S(=O)(=O)N3CCCCC3)cc2)cc1OC", "pEC50": 4.12},
      {"smiles": "CN(C)S(=O)(=O)c1ccc(NC(=S)NCC(c2ccccc2)c2ccccc2)cc1", "pEC50": 4.02},
      {"smiles": "CN(C)S(=O)(=O)c1ccc(NC(=S)NCCc2ccccc2)cc1", "EC50": "> 100 µM (inactive)"},
      {"smiles": "CCN(CC)S(=O)(=O)c1ccc(NC(=S)NC(c2ccccc2)c2ccccc2)cc1", "pEC50": 4.54},
      {"smiles": "Cc1ccc(S(=O)(=O)N(C)C)cc1NC(=S)NC1CCN(Cc2ccccc2)CC1", "EC50": "> 100 µM (inactive)"},
      {"smiles": "O=S(=O)(c1ccc(NC(=S)NCC(c2ccccc2)c2ccccc2)cc1)N1CCCC1", "pEC50": 4.70},
      {"smiles": "O=C(NC(=S)Nc1cc(S(=O)(=O)N2CCOCC2)ccc1N1CCOCC1)c1ccco1", "EC50": "> 100 µM (inactive)"},
      {"smiles": "CN(C)S(=O)(=O)c1cccc(NC(=S)NCCc2ccc(Br)cc2)c1", "pEC50": 4.06},
      {"smiles": "CCN(CC)CCCNC(=S)Nc1cccc(S(=O)(=O)N(C)C)c1", "EC50": "> 100 µM (inactive)"},
      {"smiles": "CC1CC(NC(=S)Nc2cccc(S(=O)(=O)N(C)C)c2)CC(C)N1", "note": "(centres undefined)", "EC50": "> 100 µM (inactive)"},
      {"smiles": "O=C(NC(=S)Nc1cc(S(=O)(=O)N2CCOCC2)ccc1O)c1ccco1", "EC50": "> 100 µM (inactive)"},
      {"smiles": "O=S(=O)(c1ccc(NC(=S)NC(c2ccccc2)c2ccccc2)cc1)N1CCCCC1", "pEC50": 4.96},
      {"smiles": "CN(CCc1ccccc1)C(=S)Nc1cccc(S(=O)(=O)N(C)C)c1", "EC50": "> 100 µM (inactive)"},
      {"smiles": "CN(C)S(=O)(=O)c1cccc(NC(=S)NCCc2cccc(F)c2)c1", "EC50": "> 100 µM (inactive)"},
      {"smiles": "O=S(=O)(c1ccc(NC(=S)NCCC(c2ccccc2)c2ccccc2)cc1)N1CCCCC1", "pEC50": 4.33},
      {"smiles": "CN(C)S(=O)(=O)c1cccc(NC(=S)NCCC(c2ccccc2)c2ccccc2)c1", "EC50": "> 100 µM (inactive)"},
      {"smiles": "CN(C)S(=O)(=O)c1ccc(NC(=S)NCCC(c2ccccc2)c2ccccc2)cc1", "pEC50": 4.41},
      {"smiles": "Cc1ccccc1CNC(=S)Nc1ccc(S(=O)(=O)N(C)C)cc1", "pEC50": 4.12},
      {"smiles": "CN(C)S(=O)(=O)c1cccc(NC(=S)NCC(c2ccccc2)c2ccccc2)c1", "pEC50": 4.64},
      {"smiles": "CN(C)S(=O)(=O)c1ccc(NC(=S)NC(c2ccccc2)c2ccccc2)cc1", "pEC50": 4.74},
      {"smiles": "O=c1c2ccccc2[nH]c(=S)n1-c1cccc(S(=O)(=O)N2CCCC2)c1", "EC50": "> 100 µM (inactive)"},
      {"smiles": "CN(C)CC(C)(C)CNC(=S)Nc1cccc(S(=O)(=O)N(C)C)c1", "EC50": "> 100 µM (inactive)"},
      {"smiles": "Cc1ccc(S(=O)(=O)N(C)C)cc1NC(=S)NC(C)CCC(C)C", "note": "(centres undefined)", "pEC50": 4.06},
      {"smiles": "CN(C)CCCNC(=S)Nc1cccc(S(=O)(=O)N(C)C)c1", "EC50": "> 100 µM (inactive)"},
      {"smiles": "COc1ccc(CCNC(=S)Nc2ccc(S(=O)(=O)N3CCCCC3)cc2)cc1OC", "pEC50": 4.03},
      {"smiles": "CN(C)S(=O)(=O)c1ccc(NC(=S)NCCc2cccc(O)c2)cc1", "EC50": "> 100 µM (inactive)"},
      {"smiles": "Cc1ccc(C)c(NC(=S)Nc2ccc(S(=O)(=O)N3CCCCC3)cc2)c1", "EC50": "> 100 µM (inactive)"},
      {"smiles": "O=C(CCc1ccccc1)NC(=S)Nc1cccc(S(=O)(=O)N2CCCC2)c1", "EC50": "> 100 µM (inactive)"},
      {"smiles": "Cc1ccc(S(=O)(=O)N(C)C)cc1NC(=S)NCCCn1ccnc1", "EC50": "> 100 µM (inactive)"},
      {"smiles": "O=S(=O)(c1ccc(NC(=S)NC(c2ccccc2)c2ccccc2)cc1)N1CCCC1", "pEC50": 4.58},
      {"smiles": "CCN(CC)S(=O)(=O)c1ccc(NC(=S)NCC(c2ccccc2)c2ccccc2)cc1", "pEC50": 4.34},
      {"smiles": "CN(CCc1ccccn1)C(=S)Nc1cccc(S(=O)(=O)N(C)C)c1", "EC50": "> 100 µM (inactive)"},
      {"smiles": "CN(C)S(=O)(=O)c1cccc(NC(=S)NCCN2CCCC2)c1", "EC50": "> 100 µM (inactive)"},
      {"smiles": "O=S(=O)(c1ccc(NC(=S)NCCC(c2ccccc2)c2ccccc2)cc1)N1CCCC1", "pEC50": 4.30},
      {"smiles": "CN(C)S(=O)(=O)c1cccc(NC(=S)NCc2ccc(Cl)cc2)c1", "pEC50": 4.03},
      {"smiles": "CN(C)S(=O)(=O)c1cccc(NC(=S)NCCc2ccccc2)c1", "pEC50": 4.01},
      {"smiles": "CC(CNC(=S)Nc1cccc(S(=O)(=O)N(C)C)c1)N1CCN(c2ccccc2)CC1", "note": "(centres undefined)", "EC50": "> 100 µM (inactive)"},
      {"smiles": "CN(C)S(=O)(=O)c1cccc(NC(=S)NC(c2ccccc2)c2ccccc2)c1", "pEC50": 4.70},
      {"smiles": "CN(C)S(=O)(=O)c1cccc(NC(=S)NCCCn2ccnc2)c1", "EC50": "> 100 µM (inactive)"},
      {"smiles": "Cc1ccc(CNC(=S)Nc2ccc(S(=O)(=O)N(C)C)cc2)cc1", "pEC50": 4.06},
      {"smiles": "CC1CCN(S(=O)(=O)c2ccc(NC(=S)NC(c3ccccc3)c3ccccc3)cc2)CC1", "EC50": "> 100 µM (inactive)"},
      {"smiles": "Cc1ccc(S(=O)(=O)N(C)C)cc1NC(=S)NC(C)CCCC(C)C", "note": "(centres undefined)", "pEC50": 4.24},
      {"smiles": "COc1ccccc1CNC(=S)Nc1ccc(S(=O)(=O)N(C)C)cc1", "pEC50": 4.05},
      {"smiles": "COc1cccc(CCNC(=S)Nc2cccc(S(=O)(=O)N(C)C)c2)c1", "pEC50": 4.04},
      {"smiles": "CN(C)S(=O)(=O)c1cccc(NC(=S)NCCc2cccc(O)c2)c1", "EC50": "> 100 µM (inactive)"},
      {"smiles": "COc1cccc(CNC(=S)Nc2ccc(S(=O)(=O)N(C)C)cc2)c1", "EC50": "> 100 µM (inactive)"},
      {"smiles": "CCN(CC)S(=O)(=O)c1ccc(NC(=S)NCCC(c2ccccc2)c2ccccc2)cc1", "pEC50": 4.53},
      {"smiles": "COc1ccc(CCNC(=S)Nc2ccc(S(=O)(=O)N3CCCCC3)cc2)cc1", "pEC50": 4.40},
      {"smiles": "CN(C)S(=O)(=O)c1cccc(NC(=S)NCCc2cccc(Br)c2)c1", "pEC50": 4.24},
      {"smiles": "O=S(=O)(c1ccc(NC(=S)NCc2cccc(F)c2)cc1)N1CCCCC1", "pEC50": 4.27},
      {"smiles": "CN(C)S(=O)(=O)c1ccc(NC(=S)NCCN2CCCC2)cc1", "EC50": "> 100 µM (inactive)"}
    ]}
  ]
}
